In brackets after ≈: the same amount, converted by molar mass. Read-outs that look alike come from different tables or passages of the source.

Here are results for two molecules from patent publication US8513287B2, “Heterocyclic ring and phosphonoxymethyl group substituted pyridine derivatives and antifungal agent containing same” (Eisai R&D Management Co., Ltd., priority 2007, dated 2013).

Data set [1] has as its system C. albicans E81022 strain. The experiment in a line: Experimental systemic candidal infection model in mice. Format: in vivo. To be noted: for Mean Survival Days: tail vein at 0.5 and 9 hours after infection, observed until 14 days. How it is done: (1) Preparation of Fungal Inoculant
A standing culture of C. albicans E81022 strain was carried out for 24 hours at 35° C. in sabouraud dextrose agar medium (Difco), and the recovered fungal cells were suspended in sterile physiological saline (Otsuka Pharmaceutical). By counting the fungal number on cytometry plate, the suspension was diluted to 2×10^7 cells/mL with sterilized physiological saline to serve fungal inoculum.
The fungal inoculum was used in an amount of 0.2 mL to inoculate the mice in the tail vein (4×10^6 cells/mouse).
(3) Preparation of Agent Solution, and Treatment
The compound of Example 1 was dissolved in concentrations of 13 mg/mL and 3.25 mg/mL with a 50 mM glycine buffer with a pH of 10 (Wako Pure Chemicals), these solutions were then diluted 10 times with 5% glucose (Otsuka Pharmaceutical). At 0.5 and 9 hours after infection, 0.2 mL of the agent solution was administered into a tail vein of the mice. The agent concentrations were 2.5 and 10 mg/kg (calculated as the active form). The number of animals in one group was 5 animals.
The protective effect was determined by observing life/death until 14 days after infection and calculating the mean survival days. The protective effect on the systemic candidal infection was measured for the compound of Example 1 by the method described in section 2.

A short description of data set [2]: In vitro activity compared with the parent compound. The conditions noted are these: ratio to parent compound.
Data set [3] in a line: Pharmacokinetic evaluation in mice. Format: in vivo, ICR mice. The conditions noted are these: tail vein, 3 mg/kg, FIG. 15. How it is done: (§1) (1) Preparation of Administration Solution
(§2) (2) Administration, and Sampling of Blood and Plasma
Using five-week-old female ICR mice (Charles River Japan), with the number of mouse in one group being 2 mice, the compound according to the present invention and an active form thereof were administered into the tail vein in a dose of 3 mg/kg. The tail vein was punctured 0.25, 0.5, 1.5, 3, 5, and 8 hours after administration, and blood was collected with a heparin-treated pipette.
(§3) (3) Plasma Concentration Measurement Method

A further data set can be described thus: physchem. To be noted: 25 °C. As for the experimental part: 3-(3-(4-(Pyridin-2-yloxymethyl)-benzyl)-isoxazol-5-yl)-pyridin-2-ylamine described in Reference Example 1, which is the parent compound, and the compound of Example 1 were compared for solubility in a Britton-Robinson buffer (ionic strength: 0.3) at 25° C.
For data set [4] the following is noted: in vivo, 0.4 mg/kg. As for the experimental part: as §1, §2
Blood was collected from the radial cutaneous vein 0.25, 0.5, 1, 2, 4, and 6 hours after administration using a heparin-treated syringe. The blood samples were put into sampling tubes and stored under ice cooling, they were then centrifuged for 5 minutes at 10,500×g and at 4° C. The plasma thus obtained was accurately divided into 5 μL amounts and stored at −20° C. until they were analyzed.
as §3
Imipramine hydrochloride (Sigma) was dissolved in a mixed solution of acetonitrile and methanol (1:1) so that the concentration would be 0.5 μmol/L, to prepare an internal standard substance solution (IS solution). The plasma was melted, 200 μL of IS solution was then added thereto and mixed, and this was centrifuged (deproteinated) for 10 minutes at 1500×g and at 4° C., the supernatant was then analyzed by LC-MS (Waters).

As to `Nc1c(-c2cc(Cc3ccc(COc4ccccn4)cc3)no2)ccc[n+]1COP(=O)([O-])O` [Example 1, 2-Amino-1-((phosphonoxy)methyl)-3-(3-((4-((2-pyridinyloxy)methyl)phenyl)methyl)-5-isoxazolyl)-pyridinium], the “Mean Survival Days” value was 7.4 days in data set [1] (3.25 mg/kg (calculated as active form: 2.5 mg/kg)) and 12.8 days in data set [1] (13 mg/kg (calculated as active form: 10 mg/kg)). Moreover, in data set [1] (life/death until 14 days after infection), the “protective effect on the systemic candidal infection (survival versus untreated group)” value is given as “survived for a longer time as compared to the untreated group”. Moreover, in data set [2], the “in vitro activity with respect to the parent compound (Reference Example 1)” value was 1/100. Further, the “plasma concentration of the active form after administration of the compound of Example 1” value in data set [3] is on record as “increased quickly from immediately after administration”; in data set [4], “rose quickly”. The “plasma concentration of the compound of Example 1” value in data set [3] is on record as “decreased quickly after administration”; in data set [4] it was “under the detection limit”. For the same molecule, the solubility in the data set “physchem” (pH 5, aqueous buffer) was 1900 µg/mL (≈ 4.06 mM); in “physchem” (pH 7, aqueous buffer), 10500 µg/mL (≈ 22.4 mM); in “physchem” (pH 8, aqueous buffer) it was 16400 µg/mL (≈ 35 mM); in “physchem” (pH 9, aqueous buffer), above 21100 µg/mL.

With `Nc1ncccc1-c1cc(Cc2ccc(COc3ccccn3)cc2)no1` [Parent compound, 3-(3-(4-(Pyridin-2-yloxymethyl)-benzyl)-isoxazol-5-yl)-pyridin-2-ylamine, reference compound], the solubility is below 100 µg/mL in “physchem” (Britton-Robinson buffer, pH 5, aqueous buffer); below 100 µg/mL in “physchem” (Britton-Robinson buffer, pH 7, aqueous buffer); below 100 µg/mL in the data set “physchem” (Britton-Robinson buffer, pH 8, aqueous buffer); below 100 µg/mL in “physchem” (Britton-Robinson buffer, pH 9, aqueous buffer).
